Assay results published in the supplement of paper PMC7017272.
± gives the standard deviation of the averaged measurements.

Assays:
[1] = test system: UT-SCC-44; assay: drug sensitivity score (DSS); higher = more sensitive; extreme values may be limits of the assay; conditions: treatment time: 3 days
How it was run: (§1)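 Using 384-well plates, 500 cells/well of HPV-negative HNSCC cell lines were grown on plastic, on 500 µg/mL Matrigel or Myogel coatings, or embedded in Matrigel or Myogel with rat collagen I. They were treated with compounds at five 10-fold concentrations for 3 days, and luminescence from CellTiter-Glo 2.0 was normalised to vehicle (0.1% DMSO) and cell-killing control wells. IC50, maximal inhibition and drug sensitivity score were derived from percent-inhibition dose–response curves in the FIMM pipeline.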

[2] = test system: UT-SCC-73; assay: as above; conditions: treatment time: 3 days
How it was run: as §1

[3] = test system: UT-SCC-81; assay: as above; conditions: treatment time: 3 days
How it was run: as §1

[4] = test system: UT-SCC-8; assay: as above; conditions: treatment time: 3 days
How it was run: as §1

[5] = test system: UT-SCC-106A; assay: relative IC50 (midpoint of the fitted curve; maximal inhibition may be below 50%); higher = less potent; conditions: treatment time: 3 days
How it was run: as §1

[6] = test system: UT-SCC-14; assay: as above; conditions: treatment time: 3 days
How it was run: as §1

[7] = test system: UT-SCC-42A; assay: as above; conditions: treatment time: 3 days
How it was run: as §1

[8] = test system: UT-SCC-42B; assay: as above; conditions: culture condition: on top of Myogel; treatment time: 3 days
How it was run: as §1

[9] = test system: UT-SCC-44; assay: as above; conditions: treatment time: 3 days
How it was run: as §1

[10] = test system: UT-SCC-73; assay: as above; conditions: treatment time: 3 days
How it was run: as §1

[11] = test system: UT-SCC-8; assay: as above; conditions: treatment time: 3 days
How it was run: as §1

[12] = test system: UT-SCC-24A; assay: relative IC50 (midpoint of the fitted curve; maximal inhibition may be below 50%); higher = less potent; conditions: treatment time: 3 days
Method: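 HNSCC cell lines (500 cells/well, 384-well) were cultured on plastic, on top of (2D) or embedded (3D) in Matrigel or human leiomyoma matrix Myogel (500 ug/mL; Myogel 3D mixed with rat collagen I). Cells were treated for 3 days with 5 ten-fold concentrations of each drug, and viability was read by CellTiter-Glo. Viability was normalised to DMSO (0% inhibition) and 100 uM benzethonium chloride (100% inhibition) controls and fitted with the FIMM DSRT pipeline to give IC50 (nM), maximal % inhibition and the drug sensitivity score (DSS). Suffixes _1/_2/_3 on drug names are replicates.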

[13] = culture condition: on top of Matrigel
[14] = culture condition: on top of Myogel
[15] = culture condition: plastic 2D (no matrix)
[16] = culture condition: embedded in Matrigel
[17] = culture condition: embedded in Myogel + collagen I

Compound: CO[C@H]1C[C@@H]2CC[C@@H](C)[C@@](O)(O2)C(=O)C(=O)N2CCCC[C@H]2C(=O)O[C@H]([C@H](C)C[C@@H]2CC[C@@H](OC(=O)C(C)(CO)CO)[C@H](OC)C2)CC(=O)[C@H](C)/C=C(\C)[C@@H](O)[C@@H](OC)C(=O)[C@H](C)C[C@H](C)/C=C/C=C/C=C/1C [Temsirolimus]
- drug sensitivity score [1, 13]: 9.13 ± 1 DSS
- drug sensitivity score [1, 14]: 8.97 ± 1.4 DSS
- drug sensitivity score [1, 15]: 7.9 ± 0.78 DSS
- drug sensitivity score [2, 16]: 9.13 ± 6.3 DSS
- drug sensitivity score [2, 17]: 8.27 ± 5.5 DSS
- drug sensitivity score [2, 13]: 7.23 ± 0.64 DSS
- drug sensitivity score [2, 14]: 7.1 ± 2.2 DSS
- drug sensitivity score [2, 15]: 4.53 ± 1.6 DSS
- drug sensitivity score [3, 16]: 14.9 ± 3.1 DSS
- drug sensitivity score [3, 17]: 15 ± 3.8 DSS
- drug sensitivity score [3, 13]: 10.2 ± 0.74 DSS
- drug sensitivity score [3, 14]: 14.7 ± 1.5 DSS
- drug sensitivity score [3, 15]: 12.1 ± 2.3 DSS
- drug sensitivity score [4, 16]: 9.4 ± 0.36 DSS
- drug sensitivity score [4, 17]: 4.53 ± 0.57 DSS
- drug sensitivity score [4, 13]: 9.17 ± 1.2 DSS
- drug sensitivity score [4, 14]: 11.4 ± 1.6 DSS
- drug sensitivity score [4, 15]: 10.4 ± 1.1 DSS
- relative IC50 [5, 13]: 3.18 nM
- relative IC50 [5, 14]: 4.08 nM
- relative IC50 [5, 15]: 1.95 nM
- relative IC50 [6, 16]: 0.458 nM
- relative IC50 [6, 17]: 0.654 nM
- relative IC50 [6, 13]: 0.765 nM
- relative IC50 [6, 14]: 0.33 nM
- relative IC50 [6, 15]: 0.458 nM
- relative IC50 [7, 16]: 5.49 nM
- relative IC50 [7, 14]: 2.26 nM
- relative IC50 [7, 15]: 7.63 nM
- relative IC50 [8]: > 98.9 nM
- relative IC50 [9, 13]: 0.711 nM
- relative IC50 [9, 15]: 0.691 nM
- relative IC50 [10, 17]: 0.997 nM
- relative IC50 [10, 13]: 0.383 nM
- relative IC50 [10, 15]: 1.06 nM
- relative IC50 [11, 16]: 0.997 nM
- relative IC50 [11, 14]: 0.785 nM
- relative IC50 [11, 15]: 0.669 nM
- relative IC50 [12, 13]: 2.16 nM
- relative IC50 [12, 14]: 2.23 nM
- relative IC50 [12, 15]: 1.66 nM
